We go through 18 compounds from patent publication US20240360148A1 (SUVALENT THERAPEUTICS, INC., priority 2021, published 2024).

One test addresses SAE1 (Homo sapiens (Human), UniProt Q9UBE0+Q9UBT2). Briefly: SAE High Throughput Biochemical Assay (HTRF), 15 min preincubation. The following applies: read-out: 15 min preincubation HTRF IC50 (μM) Ave, SAE1 12.5 nM, ATP 100 μM. In a few lines: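 SAE1 (12.5 nM) was preincubated with compound for 15 min at RT in HEPES pH 7.5, 0.1% BSA, 10 mM MgCl2. The reaction was then started with SUMO-GST and UBC9-His (40 nM each) plus 100 μM ATP for 45 min. After KF stop, HTRF (anti-GST-XL665/anti-His-EuK) was read at 2 h and overnight; some compounds were tested singly at 25 micromolar as percent of control.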
A general note: TR-FRET usually uses a lanthanide donor and a delayed reading to cut background.

Test [1] has as its system sumoylation levels (SUMO 2/3 conjugates) in HCT-116 cells. The test is described as follows: HCT-116 4 Hour Cell Assay (Western, SUMO 2/3 conjugates). Format: cell-based. The following applies: Homo sapiens, HCT-116, 4 h, 4 h treatment, Anti-Sumo 2-3 immunoblot, read-out: HCT-116 Western 4 h IC50 (μM) Ave. How it is done:
This protocol describes the procedures used to assess the effects of compounds of interest on sumoylation levels. Immunoblot of SUMO 2/3 conjugates are performed and IC50 curves are generated upon quantification of sumoylations bands. HCT-116 cells are seeded in a 12 well plate (500,000 cells/well). The following day the cells are treated with compounds of interest (resuspended in DMSO) for 4 hours (11 concentrations with a three-fold dilution; starting concentration 25 μM) Following 4 hours of incubation the cells are washed with ice cold PBS 1×and protein extraction is performed with RIPA buffer supplemented with phosphatases and proteases inhibitors, 25 mM of NEM and 50 units/mL of Benzonase. Samples undergo centrifugation at 13,000 RPM, 4° C., for 10 minutes and the supernatant is collected. Protein quantification is performed using BCA. Non-Reducing Laemmli Buffer is added to the samples. Samples are heated at 75° C. for 10 minutes, and are centrifuged for 3 minutes at 9000 RPM Nupage 4-12% Bis Tris gels and 1× MOPS buffer (Fisher Scientific)+1× NuPAGE Antioxidant (Invitrogen) are used to perform the SDS-PAGE gel electrophoresis (20 to 40 μg of proteins are loaded in the gels). Proteins are then transferred to PVDF membranes and the level of total proteins are measured by staining with Revert Total Protein Stain and the fluorescent bands are acquired using the LI-COR FC (700 nm for 1 min) Membranes are blocked for 5 minutes with Bio-Rad Blocking Buffer and are subsequently incubated over night at 4° C. with Anti-Sumo 2-3 mAb (M BL #M114-3, 1:1000 in Bio-Rad Blocking Buffer, 0.2% Tween 20) Membranes are washed with 1×TBS-T (3 times for 5 minutes) and sumoylation is detected using Li-cor IRDye 800CW Goat anti-Mouse IgG secondary antibody (1:10,000 dilution) upon 1 hour of incubation in blocking buffer with 0.2% Tween 20 and 0.01% SDS. After the incubation, the membranes are washed with 1×TBS-T (3 times for 5 minutes). To visualize the fluorescent bands the membranes are scanned with LI-COR FC (700 nm for 1 min and […] for 2 mins). Sumoylation levels are quantified upon normalization with total protein levels, using the LI-COR Image Studio Lite 5.2 Software.

Sequence of SAE1 (Q9UBE0 whole entry): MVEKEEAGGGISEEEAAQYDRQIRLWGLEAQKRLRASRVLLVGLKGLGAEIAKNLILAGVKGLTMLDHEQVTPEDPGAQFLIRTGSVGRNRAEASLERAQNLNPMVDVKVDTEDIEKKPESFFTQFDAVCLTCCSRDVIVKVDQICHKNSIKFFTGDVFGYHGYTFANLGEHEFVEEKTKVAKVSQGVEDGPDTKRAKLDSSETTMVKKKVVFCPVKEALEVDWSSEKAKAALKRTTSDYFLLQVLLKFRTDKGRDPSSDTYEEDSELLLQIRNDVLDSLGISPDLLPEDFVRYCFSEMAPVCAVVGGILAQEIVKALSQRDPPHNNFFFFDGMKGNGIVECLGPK
Sequence of SAE1 (Q9UBT2 whole entry): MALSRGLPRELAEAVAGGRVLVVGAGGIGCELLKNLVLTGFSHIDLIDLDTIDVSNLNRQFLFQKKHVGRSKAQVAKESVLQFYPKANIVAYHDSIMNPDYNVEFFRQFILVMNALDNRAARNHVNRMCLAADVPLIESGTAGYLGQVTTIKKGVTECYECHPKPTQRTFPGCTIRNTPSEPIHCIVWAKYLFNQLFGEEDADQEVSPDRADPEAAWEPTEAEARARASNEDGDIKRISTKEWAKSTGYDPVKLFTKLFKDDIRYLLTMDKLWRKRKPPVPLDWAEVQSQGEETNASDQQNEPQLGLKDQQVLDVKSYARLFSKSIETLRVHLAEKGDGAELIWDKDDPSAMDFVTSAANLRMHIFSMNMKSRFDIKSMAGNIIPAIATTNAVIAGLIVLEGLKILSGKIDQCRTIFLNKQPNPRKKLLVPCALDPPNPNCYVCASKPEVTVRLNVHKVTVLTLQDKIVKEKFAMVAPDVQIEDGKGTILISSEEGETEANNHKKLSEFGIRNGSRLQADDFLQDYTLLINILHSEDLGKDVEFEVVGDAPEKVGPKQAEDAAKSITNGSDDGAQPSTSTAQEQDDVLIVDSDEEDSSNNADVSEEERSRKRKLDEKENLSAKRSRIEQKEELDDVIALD

On to `CCn1cc(-c2ccccc2[C@@H]2CN(C(=O)/C=C/CN3CCC(C)C3)Cc3sc(C#N)cc32)c(C(F)(F)F)n1` (stereo partly drawn) [Example 32], for which the IC50 (usually the concentration needed to halve the response being measured) on SAE1 was 3.9 µM; in test [1], 2.05 µM.
For `CN(C)C/C=C/C(=O)N1Cc2sc(C#N)cc2[C@H](c2ccccc2-c2cn(C)nc2C(F)(F)F)C1` [Example 3, (S, E)-6-(4-(Dimethylamino)but-2-enoyl)-4-(2-(1-methyl-3-(trifluoromethyl)-1 H-pyrazol-4-yl)phenyl)-4,5,6,7-tetrahydrothieno[2,3-c]pyridine-2-carbonitrile], the IC50 was found to be 7.87 µM at SAE1 and 0.985 µM in test [1].
The matching figures for `CCn1cc(-c2c(F)cccc2[C@@H]2CN(C(=O)/C=C/CNC(C)(C)C)Cc3sc(C#N)cc32)c(C(F)(F)F)n1` [Example 127, (S, E)-6-(4-(tert-butylamino)but-2-enoyl)-4-(2-(1-ethyl-3-(trifluoromethyl)-1 H pyrazol-4-yl)-3-fluorophenyl)-4,5,6,7-tetrahydrothieno[2,3-c]pyridine-2-carbonitrile]: 1.07 µM and 0.225 µM.
As for `CCN(CC)C/C=C/C(=O)N1Cc2sc(C#N)cc2[C@H](c2ccccc2-c2cn(CC)nc2C(F)(F)F)C1` [Example 28, (S, E)-6-(4-(Diethylamino)but-2-enoyl)-4-(2-(1-ethyl-3-(trifluoromethyl)-1 H-pyrazol-4-yl)phenyl)-4,5,6,7-tetrahydrothieno[2,3-c]pyridine-2-carbonitrile], the IC50 at SAE1 was 8.43 µM; in test [1], 0.331 µM.
With `CCn1cc(-c2ccccc2[C@@H]2CN(C(=O)/C=C/[C@H]3C[C@@H](C)CN3)Cc3sc(C#N)cc32)c(C(F)(F)F)n1` [Example 81, (S)-4-(2-(1-Ethyl-3-(trifluoromethyl)-1 H-pyrazol-4-yl)phenyl)-6-((E)-3-((2R, 4R)-4-methylpyrrolidin-2-yl)acryloyl)-4,5,6,7-tetrahydrothieno[2,3-c]pyridine-2-carbonitrile], the IC50 at SAE1 worked out at 2.69 µM; in test [1], 0.35 µM.
The matching figures for `Cc1c(C#N)sc2c1[C@H](c1cccc(F)c1-c1cn(C)nc1C(F)(F)F)CN(C(=O)/C=C/CN(C)C)C2` [Compound 220]: 0.067 µM and 0.0573 µM.
The matching figures for `CCn1cc(-c2ccccc2[C@@H]2CN(C(=O)/C=C/CNC3CC3)Cc3sc(C#N)cc32)c(C(F)(F)F)n1` [Example 102, (S, E)-6-(4-(Cyclopropylamino)but-2-enoyl)-4-(2-(1-ethyl-3-(trifluoromethyl)-1 H-pyrazol-4-yl)phenyl)-4,5,6,7-tetrahydrothieno[2,3-c]pyridine-2-carbonitrile]: 1.74 µM and 0.675 µM.
For `CCn1cc(-c2c(F)cc(F)cc2C2CN(C(=O)/C=C/CN(C)C)Cc3sc(C#N)cc32)c(C(F)(F)F)n1` (stereo not drawn) [Example 183, (E)-6-(4-(Dimethylamino)but-2-enoyl)-4-(2-(1-ethyl-3-(trifluoromethyl)-1 H-pyrazol-4-yl)-3,5-difluorophenyl)-4,5,6,7-tetrahydrothieno[2,3-c]pyridine-2-carbonitrile], in that order: 2.16 µM and 0.321 µM.
On to `CCn1cc(-c2ccccc2[C@@H]2CN(C(=O)/C=C/CN3CCC(C(=O)O)C3)Cc3sc(C#N)cc32)c(C(F)(F)F)n1` (stereo partly drawn) [Example 5, 1-((E)-4-((S)-2-Cyano-4-(2-(1-ethyl-3-(trifluoromethyl)-1 H-pyrazol-4-yl)phenyl)-4,7-dihydrothieno[2,3-c]pyridin-6(5H)-yl)-4-oxobut-2-en-1-yl)pyrrolidine-3-carboxylic acid], for which the IC50 at SAE1 worked out at 10.3 µM; in test [1], 14.1 µM.
For `CCn1cc(-c2ccccc2[C@@H]2CN(C(=O)/C=C/CN(C)C)Cc3sc(C#N)c(C)c32)c(C(F)(F)F)n1` [Compound 239], in that order: 1.12 µM and 0.187 µM.
With `CCn1cc(-c2cc(O)ccc2C2CN(C(=O)/C=C/CN(C)C)Cc3sc(C#N)cc32)c(C(F)(F)F)n1` (stereo not drawn) [Example 203, (E)-6-(4-(Dimethylamino)but-2-enoyl)-4-(2-(1-ethyl-3-(trifluoromethyl)-1 H-pyrazol-4-yl)-4-hydroxyphenyl)-4,5,6,7-tetrahydrothieno[2,3-c]pyridine-2-carbonitrile], the results for the IC50 (at SAE1; in test [1]) were 4.75 µM and 0.767 µM, respectively.
For `CCn1cc(-c2ccccc2C2CN(C(=O)/C=C/CN(C)C)Cc3sc(C#N)c(C)c32)c(C(F)(F)F)n1` (stereo not drawn) [Compound 232], the IC50 at SAE1 stood at 1.36 µM; in test [1] it was 0.402 µM.
The matching figures for `CCn1cc(-c2c(C3CN(C(=O)/C=C/CN(C)C)Cc4sc(C#N)cc43)ccc(O)c2F)c(C(F)(F)F)n1` (stereo not drawn) [Example 189, (E)-6-(4-(Dimethylamino)but-2-enoyl)-4-(2-(1-ethyl-3-(trifluoromethyl)-1 H-pyrazol-4-yl)-3-fluoro-4-hydroxyphenyl)-4,5,6,7-tetrahydrothieno[2,3-c]pyridine-2-carbonitrile]: 1.67 µM and 0.46 µM.
For `CCn1cc(-c2c(F)cccc2[C@@H]2CN(C(=O)/C=C/C3CC[C@@H](C)N3)Cc3sc(C#N)cc32)c(C(F)(F)F)n1` (stereo in doubt) [Example 93, (S)-4-(2-(1-ethyl-3-(trifluoromethyl)-1H pyrazol-4-yl)-3-fluorophenyl)-6-((E)-3-((2S,5R)-5-methylpyrrolidin-2-yl)acryloyl)-4,5,6,7-tetrahydrothieno[2,3-c]pyridine-2-carbonitrile], the values for the IC50 (at SAE1; in test [1]) were 0.76 µM and 0.145 µM, respectively.
The matching figures for `CCn1cc(-c2ccccc2[C@@H]2CN(C(=O)/C=C/CN)Cc3sc(C#N)cc32)c(C(F)(F)F)n1` [Example 125, (S, E)-6-(4-Aminobut-2-enoyl)-4-(2-(1-ethyl-3-(trifluoromethyl)-1 H-pyrazol-4-yl)phenyl)-4,5,6,7-tetrahydrothieno[2,3-c]pyridine-2-carbonitrile]: 1.23 µM and 0.543 µM.
The matching figures for `CCCCNC/C=C/C(=O)N1Cc2sc(C#N)cc2[C@H](c2ccccc2-c2cn(CC)nc2C(F)(F)F)C1` [Example 103, (S, E)-6-(4-(Butylamino)but-2-enoyl)-4-(2-(1-ethyl-3-(trifluoromethyl)-1 H-pyrazol-4-yl)phenyl)-4,5,6,7-tetrahydrothieno[2,3-c]pyridine-2-carbonitrile]: 2.66 µM and 1.66 µM.
For `CCn1cc(-c2ccccc2[C@@H]2CN(C(=O)C#C[C@@]3(C)CCCN3)Cc3sc(C#N)cc32)c(C(F)(F)F)n1` [Example 141, (S)-4-(2-(1-Ethyl-3-(trifluoromethyl)-1 H pyrazol-4-yl)phenyl)-6-(3-((R)-2-methylpyrrolidin-2-yl)propioloyl)-4,5,6,7-tetrahydrothieno[2,3-c]pyridine-2-carbonitrile], in that order: 0.35 µM and 4.88 µM.
Turning to `CN(C)C/C=C/C(=O)N1Cc2sc(C#N)cc2[C@H](c2cccc(F)c2-c2cn(C)nc2C(F)(F)F)C1` [Example 250, (S)-6-((E)-4-(dimethylamino)but-2-enoyl)-4-((S)-3-fluoro-2-(1-methyl-3-(trifluoromethyl)-1 H-pyrazol-4-yl)phenyl)-4,5,6,7-tetrahydrothieno[2,3-c]pyridine-2-carbonitrile], the IC50 on SAE1 was 0.76 µM; in test [1] it was 0.263 µM.
